# Measured values as given in EP4745134A1 (Jiangsu Yahong Meditech Co., Ltd., priority 2023, dated 2025).
# Experiments:
# [1] = target: PRMT5-MTA (Homo sapiens, UniProt O14744); assay: Enzymatic inhibitory activity against PRMT5-MTA (AlphaScreen); assay type: biochemical; conditions: read-out: IC50
# Summary of the method: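 PRMT5/[…] (1 nM) was preincubated for 30 min at room temperature with 1 µM […] and 2.5 µM SAM, then exposed to compound (10-point, 3-fold from 1000 nM) for 15 min at 23 °C. Histone H4 substrate (5 nM) was added and reacted for 45 min at 23 °C. Symmetric dimethyl-R3 H4 was detected by AlphaScreen and IC50 calculated.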
# [2] = tested on: HCT116 MTAP KO cells; assay: Inhibitory activity against cell proliferation (CellTiter Glo, 6 days), HCT116 MTAP KO; assay type: cell-based; conditions: for IC50: Homo sapiens, HCT-116, 144 h, HCT116 MTAP KO cells, 6 days, CellTiter Glo, read-out: HCT116 MTAP KO IC50; for Selectivity HCT 116-WT/ HCT116 MTAP KO: ratio of IC50 HCT116-WT / HCT116 MTAP KO
# Summary of the method: (§1)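 Viability IC50s come from CellTiter Glo luminescence after 6 days' exposure to compound (8 concentrations, 4-fold steps, top 10000 nM), relative to DMSO wells. Cells were MTAP-KO or WT HCT116, seeded at 250 per well in McCoy's 5A with 10% FBS and incubated overnight before dosing.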
# [3] = tested on: HCT116-WT cells; assay: Inhibitory activity against cell proliferation (CellTiter Glo, 6 days), HCT116-WT; assay type: cell-based; conditions: 144 h, HCT116-WT cells, 6 days, CellTiter Glo; read-out: HCT116-WT IC50
# Summary of the method: as §1
# Sequence of PRMT5-MTA (O14744 whole entry): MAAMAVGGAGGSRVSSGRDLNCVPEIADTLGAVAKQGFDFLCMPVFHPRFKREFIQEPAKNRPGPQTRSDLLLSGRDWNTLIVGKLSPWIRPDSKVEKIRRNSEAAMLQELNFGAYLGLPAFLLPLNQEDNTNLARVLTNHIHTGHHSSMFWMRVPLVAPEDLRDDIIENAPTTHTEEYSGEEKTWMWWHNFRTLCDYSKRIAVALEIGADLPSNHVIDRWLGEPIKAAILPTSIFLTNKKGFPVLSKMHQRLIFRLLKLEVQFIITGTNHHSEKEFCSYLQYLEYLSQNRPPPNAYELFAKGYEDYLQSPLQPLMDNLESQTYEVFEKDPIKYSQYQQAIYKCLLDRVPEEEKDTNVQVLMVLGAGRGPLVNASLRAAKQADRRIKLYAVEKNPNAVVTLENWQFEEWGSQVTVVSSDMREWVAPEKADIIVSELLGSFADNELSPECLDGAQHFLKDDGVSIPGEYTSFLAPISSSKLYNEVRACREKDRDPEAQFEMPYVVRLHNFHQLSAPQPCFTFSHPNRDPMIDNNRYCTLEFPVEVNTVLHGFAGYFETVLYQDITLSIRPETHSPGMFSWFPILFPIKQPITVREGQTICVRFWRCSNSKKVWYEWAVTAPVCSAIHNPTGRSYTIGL
# Sequence of PRMT5-MTA (Q9BQA1 whole entry partner): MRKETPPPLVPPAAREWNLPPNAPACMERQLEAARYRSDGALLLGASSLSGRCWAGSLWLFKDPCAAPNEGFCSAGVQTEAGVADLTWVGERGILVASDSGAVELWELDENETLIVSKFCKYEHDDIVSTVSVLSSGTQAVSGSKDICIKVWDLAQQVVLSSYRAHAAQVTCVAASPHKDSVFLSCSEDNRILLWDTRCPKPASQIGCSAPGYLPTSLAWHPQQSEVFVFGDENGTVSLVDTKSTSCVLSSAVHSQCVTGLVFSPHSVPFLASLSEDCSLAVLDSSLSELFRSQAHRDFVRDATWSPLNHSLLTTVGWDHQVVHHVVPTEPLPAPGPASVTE
SMILES,IC50 [1] [nM],IC50 [2] [nM],Selectivity HCT 116-WT/ HCT116 MTAP KO [2],IC50 [3] [nM]
"Cc1cnc(N2CC(C)CN2C(=O)c2cc3c(cc2C)nc(N)c2cnn(C)c23)c(F)c1 (centres unmarked) [Compound 490, (4-amino-1,7-dimethyl-1H-pyrazolo[4,3-c]quinolin-8-yl)(2-(3-fluoro-5-methylpyridin-2-yl)-4-methylpyrazolidin-1-yl)metha none]",5.1,26,38.96,1010
"Cc1cc2cc(C(=O)N(Cc3ccc(-c4cncs4)cn3)N(C)c3nccc4nccnc34)ccc2nc1N [Example 183, 2-amino-N',3-dimethyl-N'-(pyrido[3,4-b]pyrazin-5-yl)-N-((5-(thiazol-5-yl)pyridin-2-yl)methyl)quinoline-6-carbohydrazide]",3.9,17,18.71,318
"Cc1cc2cc(C(=O)N(Cc3ccc(Br)cn3)N(c3ncccn3)C3CC3)ccc2nc1N [Example 82, 2-amino-N-((5-bromopyridin-2-yl)methyl)-N'-cyclopropyl-3-methyl-N'-(pyrimidin-2-yl)quinoline-6-carbohydrazide]",2.2,16,17.63,282
"Cc1cc2nc(N)c3cnn(C)c3c2cc1C(=O)N1CC(C)CN1c1ccccc1 (centres unmarked) [Example 396, (4-amino-1,7-dimethyl-1H-pyrazolo[4,3-c]quinolin-8-yl)(4-methyl-2-phenylpyrazolidin-1-yl)methanone]",5.2,298,16.21,4830
"Cc1cc2cc(C(=O)N(Cc3ccc(-c4cnc5ccccc5c4)cn3)N(C)c3ncccn3)ccc2nc1N [Example 197, 2-amino-N',3-dimethyl-N'-(pyrimidin-2-yl)-N-((5-(quinolin-3-yl)pyridin-2-yl)methyl)quinoline-6-carbohydrazide]",1.1,34,18.97,645
"Cc1cc2cc(C(=O)N(Cc3ccc(C(F)(F)F)cn3)N(C)c3ncccc3C(F)F)ccc2nc1N [Example 117, 2-amino-N'-(3-(difluoromethyl)pyridin-2-yl)-N',3-dimethyl-N-((5-(trifluoromethyl)pyridin-2-yl)methyl)quinoline-6-carbohydrazide]",1.8,89,14.00,1250
"Cc1cc2nc(N)c3cnn(C)c3c2cc1C(=O)N1CC(C)CN1c1ncc(-c2cnn(C(F)(F)F)c2)cc1F (centres unmarked) [Example 472, (4-amino-1,7-dimethyl-1H-pyrazolo[4,3-c]quinolin-8-y1)(2-(3-fluoro-5-(1-(trifluor omethyl)-1H-pyrazol-4-yl)pyridin-2-yl)-4-methylpyrazolidin-1-yl)methanone]",4.6,30,32.37,971
"Cc1cc2cc(C(=O)N(Cc3ccc(C(F)(F)F)cn3)N(C)c3nccs3)ccc2nc1N [Example 33, 2-amino-N',3-dimethyl-N'-(thiazol-2-yl)-N-((5-(trifluoromethyl)pyridin-2-yl)methyl)quinoline-6-carbohydrazide]",3.3,125,19.87,2480
"Cc1cc2cc(C(=O)N(Cc3ccc(-c4cnn(CF)c4)cn3)N(C)c3ncccn3)ccc2nc1N [Example 233, 2-amino-N-((5-(1-(fluoromethyl)-1H-pyrazol-4-yl)pyridin-2-yl)methyl)-N',3-dimet hyl-N'-(pyrimidin-2-yl)quinoline-6-carbo hydrazide]",4.4,39,26.28,1020
"Cc1cc2nc(N)c3cnn(C)c3c2cc1C(=O)N1CC(C)CN1c1cncc(F)c1 (centres unmarked) [Example 387, (4-amino-1,7-dimethyl-1H-pyrazolo[4,3-c]quinolin-8-yl)(2-(5-fluoropyridin-3-yl)-4-methylpyrazolidin-1-yl)methanone]",3.7,90,27.40,2470
"[2H]C([2H])([2H])n1ncc2c(N)nc3cc(C)c(C(=O)N4CC(C)CN4c4ncccc4F)cc3c21 (centres unmarked) [Example 507, (4-amino-7-methyl-1-(methyl-D3)-1H-pyrazolo[4,3-c]quinolin-8-yl)(2-(3-fluoropyridin-2-yl)-4-methylpyrazolidin-1-yl)methanone]",10.3,38,44.34,1680
"Cc1cc2cc(C(=O)N(Cc3ccc(Br)cn3)N(C)c3ncccn3)ccc2nc1N [Example 67, 2-amino-N-((5-bromopyridin-2-yl)methyl)-N',3-dimethyl-N'-(pyrimidin-2-yl)quin oline-6-carbohydrazide]",1.5,40,40.08,1600
"CN(c1ccccc1)N(Cc1ccc(C(F)(F)F)cn1)C(=O)c1ccc2nc(N)c3cnn(C)c3c2c1 [Example 52, 4-amino-N',1-dimethyl-N'-phenyl-N-((5-(trifluoromethyl)pyridin-2-yl)methyl)-1H-pyrazolo[4,3-c]quinoline-8-carbohydrazide]",3.7,13,32.08,417
"COC1CN(C(=O)c2cc3c(cc2C)nc(N)c2cnn(C)c23)N(c2ncc(F)cc2F)C1 (centres unmarked) [Example 443, (4-amino-1,7-dimethyl-1H-pyrazolo[4,3-c]quinolin-8-yl)(2-(3,5- ? fluoropyridin-2-yl)-4-methoxypyrazolidin-1-yl)methanone]",5,26,18.00,468
"Cc1cc2nc(N)c3cnn(C)c3c2cc1C(=O)N(C)N1CCc2cccnc21 [Example 112, 4-amino-N-(2,3-dihydro-1H-pyrrolo[2,3-b]pyridin-1-yl)-N,1,7-trimethyl-1H-pyrazolo[4,3-c]quinoline-8-carboxamide]",1.9,360,–,> 10000
"Cc1cc2cc(C(=O)N(Cc3ccc(C4CC4)cn3)N(C)c3ncccc3C(F)(F)F)ccc2nc1N [Example 196, 2-amino-N-((5-cyclopropylpyridin-2-yl)methyl)-N',3-dimethyl-N'-(3-(trifluoromethyl)pyridin-2-yl)quinoline-6-carbohydrazide]",5.7,34,12.97,441
"COc1cc(-c2ccc(CN(C(=O)c3ccc4nc(N)c(C)cc4c3)N(C)c3ncccn3)nc2)cnc1F [Example 199, 2-amino-N-((6'-fluoro-5'-methoxy-[3,3'-bipyridine]-6-yl)methyl)-N',3-dimethyl-N'-(pyrimidin-2-yl)quinoline-6-carbohydrazide]",2.5,106,18.53,1960
"CCC1CN(C(=O)c2cc3c(cc2C)nc(N)c2cnn(C)c23)N(c2ncccc2F)C1 (centres unmarked) [Example 415, (4-amino-1,7-dimethyl-1H-pyrazolo[4,3-c]quinolin-8-yl)(4-ethyl-2-(3-fluoropyridin-2-yl)pyrazolidin-1-yl)methanone]",2.6,19,42.63,810
